{"source": "patent US8247398B2", "about": "“Zinc complexes of natural amino acids for treating elevated copper caused toxicities” (SSV Therapeutics, Inc., priority 2007, dated 2012)", "origin": "cited, not measured here"}
{"compound": "CC(=O)[O-].CC(=O)[O-].[Zn+2]", "note": "[zinc acetate]", "values": [{"measurement": "patients encountering persistent gastric irritation, burning sensation, and nausea", "setting": "patients receiving zinc acetate therapy", "result": "About 10%"}, {"measurement": "time before therapy is tolerable to the patient", "setting": "taken on an empty stomach or in-between meals", "result": "several days or weeks"}]}
{"compound": "O=S(=O)([O-])[O-].[Zn+2]", "note": "[Zinc sulfate, zinc sulfate]", "values": [{"measurement": "patient discomfort compared with zinc acetate", "setting": "Wilson's disease therapy", "result": "even more patient discomfort"}]}
{"compound": "N[C@@H](Cc1c[nH]cn1)C(=O)O.[Zn]", "note": "[zinc histidine]", "values": [{"measurement": "metallothionein production in livers", "setting": "metallothionein; oral administration, male Wistar rat livers, within 12 hours", "result": "14-39 fold over control group"}]}
{"compound": "zinc dipicolinate", "values": [{"measurement": "metallothionein induction in the epidermis, sebaceous glands and hair follicles", "setting": "metallothionein; same test as zinc histidine chelate (rats)", "result": "substantially raised"}]}
